# Reference: paper PMC6010111, “Synthesis, biological evaluation and molecular modeling studies on novel quinonoid inhibitors of CDC25 phosphatases” (Journal of Enzyme Inhibition and Medicinal Chemistry, 2016)
# Experiments:
# Assay type in all cases: biochemical
# [1] = target: T1, human CDC25A (recombinant GST-CDC25) (Homo sapiens, UniProt P30304); assay: CDC25A dephosphorylation assay with 3-O-methylfluorescein phosphate (fluorimetric); conditions: for IC50: mean of triplicates ± SD; for remaining activity at 100 µM: 100 µM compound, DMSO control = 100%, read-out: residual activity of CDC25A
# T1 construct: made in house; host or cells: Escherichia coli BL21-DE3 pLys S
# T1 sequence (P30304 1-524): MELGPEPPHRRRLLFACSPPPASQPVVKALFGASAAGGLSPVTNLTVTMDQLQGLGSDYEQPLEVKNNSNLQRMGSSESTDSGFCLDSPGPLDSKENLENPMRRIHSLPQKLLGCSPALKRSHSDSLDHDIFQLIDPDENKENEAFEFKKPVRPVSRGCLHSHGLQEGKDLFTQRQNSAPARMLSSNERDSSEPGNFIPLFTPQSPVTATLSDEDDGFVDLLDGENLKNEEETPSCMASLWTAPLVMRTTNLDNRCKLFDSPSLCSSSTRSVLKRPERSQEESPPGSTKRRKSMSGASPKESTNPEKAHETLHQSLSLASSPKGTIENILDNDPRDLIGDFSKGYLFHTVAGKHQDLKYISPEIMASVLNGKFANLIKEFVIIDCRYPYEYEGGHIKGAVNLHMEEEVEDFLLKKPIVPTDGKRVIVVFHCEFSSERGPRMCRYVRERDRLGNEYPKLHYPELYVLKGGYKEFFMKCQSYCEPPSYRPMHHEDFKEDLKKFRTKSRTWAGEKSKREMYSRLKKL
# Source text: (§1) Human glutathione-S-transferase (GST)-Cdc25 recombinant enzymes were used to evaluate the inhibitory potential of compounds.
# (§2) Recombinant human GST-CDC25 proteins were produced as previously described by Brault et al.[25] Briefly, the GST-tagged Cdc25s were expressed in the bacterial expression system Escherichia coli BL21-DE3 pLys S, transformed by a plasmidic vector (pGEX 2T) containing the sequences encoding full length CDC25. Production of recombinant proteins was induced via an IPTG induction system. Then, cells were lysed and centrifuged to recover the supernatant which was purified with a GSH-agarose column system, and recombinant GST-CDC25 proteins were eluted and collected in fractions. Activity, purity and protein concentration of the fractions were evaluated.
# (§3) CDC25 enzymatic activity was measured by a dephosphorylation assay with 3-O methyl fluorescein phosphate as described. Briefly, the assay was performed in 96-well plates in buffer [50 mM Tris–HCl, 50 mM NaCl, 1 mM EDTA and 0.1% SAB, pH 8.1], 3-O-methylfluorescein phosphate was used as substrate. After 2 h at 30 °C, 3-O-methylfluorescein fluorescent emission was measured with a CytoFluor system (Perspective Applied Biosystems, Villebon-sur-Yvette, France; excitation filter: 475 nm; emission filter: 510 nm).
# (§4) Assays were performed in triplicate, and the experiment was independently performed three times. The results are expressed as percentage of inhibition of CDC25 phosphatase activity in presence of the tested compounds (and compared to DMSO control). All compounds were tested at a 100 µM concentration. Naphtoquinone (20 µM) was used as positive reference inhibitor.
# (§5) IC50 values for CDC25 inhibition were evaluated by in vitro fluorimetric assays and were determined with sigmoid curves plotted by using a non-linear approximation model based on the least square method (GraphPad Prism software, La Jolla, CA).
# [2] = target: T2, human CDC25B (recombinant GST-CDC25) (Homo sapiens, UniProt P30305); assay: CDC25B dephosphorylation assay with 3-O-methylfluorescein phosphate (fluorimetric); conditions: for remaining activity at 100 µM: 100 µM compound, DMSO control = 100%, read-out: residual activity of CDC25B; for IC50 / IC50 CDC25B: mean of triplicates ± SD
# T2 construct: made in house; host or cells: Escherichia coli BL21-DE3 pLys S
# T2 sequence (P30305 1-580): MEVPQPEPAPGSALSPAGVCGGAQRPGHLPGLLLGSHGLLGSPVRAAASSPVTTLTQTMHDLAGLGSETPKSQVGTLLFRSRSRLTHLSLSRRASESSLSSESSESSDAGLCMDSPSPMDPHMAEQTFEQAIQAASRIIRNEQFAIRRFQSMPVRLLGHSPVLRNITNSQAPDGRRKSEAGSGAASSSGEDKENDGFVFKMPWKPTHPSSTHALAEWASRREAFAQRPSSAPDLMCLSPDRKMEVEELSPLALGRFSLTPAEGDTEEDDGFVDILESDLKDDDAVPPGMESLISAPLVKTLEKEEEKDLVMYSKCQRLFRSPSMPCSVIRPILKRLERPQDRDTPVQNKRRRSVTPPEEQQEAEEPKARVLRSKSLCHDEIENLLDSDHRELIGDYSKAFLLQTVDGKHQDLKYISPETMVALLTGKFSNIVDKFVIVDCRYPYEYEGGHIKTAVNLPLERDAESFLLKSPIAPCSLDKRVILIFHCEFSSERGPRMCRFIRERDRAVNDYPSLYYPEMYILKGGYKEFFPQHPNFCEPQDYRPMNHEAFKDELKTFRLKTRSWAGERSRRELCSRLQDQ
# Source text: as §1, §2, §3, §4, §5
# [3] = target: T3, human CDC25C (recombinant GST-CDC25) (Homo sapiens, UniProt P30307); assay: CDC25C dephosphorylation assay with 3-O-methylfluorescein phosphate (fluorimetric); conditions: for remaining activity at 100 µM: 100 µM compound, DMSO control = 100%, read-out: residual activity of CDC25C; for IC50: mean of triplicates ± SD
# T3 construct: made in house; host or cells: Escherichia coli BL21-DE3 pLys S
# T3 sequence (P30307 1-473): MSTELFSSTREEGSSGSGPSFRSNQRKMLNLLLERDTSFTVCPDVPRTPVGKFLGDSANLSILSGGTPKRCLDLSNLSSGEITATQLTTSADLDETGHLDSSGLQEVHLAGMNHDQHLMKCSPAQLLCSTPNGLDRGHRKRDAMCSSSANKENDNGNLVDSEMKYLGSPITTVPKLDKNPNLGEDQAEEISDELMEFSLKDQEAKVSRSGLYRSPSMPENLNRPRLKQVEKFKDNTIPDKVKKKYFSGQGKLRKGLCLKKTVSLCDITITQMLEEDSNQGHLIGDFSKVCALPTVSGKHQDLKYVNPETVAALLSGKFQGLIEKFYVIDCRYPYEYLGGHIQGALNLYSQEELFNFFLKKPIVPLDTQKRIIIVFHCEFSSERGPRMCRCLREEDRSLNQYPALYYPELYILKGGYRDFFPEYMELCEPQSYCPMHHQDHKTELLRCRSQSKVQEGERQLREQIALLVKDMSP
# Source text: as §1, §2, §3, §4, §5
SMILES,IC50 [1] [µM],remaining activity at 100 µM [1] [%],remaining activity at 100 µM [2] [%],remaining activity at 100 µM [3] [%],IC50 [2] [µM],IC50 [3] [µM],IC50 CDC25B [2]
COCC1=CC(=O)C(C)=C([S@@+]([O-])c2ccc(C)cc2)C1=O [Compound 2],,> 10,> 10,> 10,,,
CCOC1=CC(=O)C(C)=C([S@@+]([O-])c2ccc(C)cc2)C1=O [Compound 3],3.19 ± 1.02,,,,11.1 ± 1.01,5.41 ± 0.52,double digit micromolar
COC1=CC(=O)[C@]2(C)CC=C3CO[C@@H](c4ccoc4)CC3[C@]2([S@@+]([O-])c2ccc(C)cc2)C1=O (stereo partly drawn) [Compound 4],3.73 ± 1.53,,,,18.2 ± 1.68,9.43 ± 1.25,double digit micromolar
COC1=CC(=O)[C@]2(C)CC=C3CO[C@@H](c4ccccc4)CC3[C@]2([S@@+]([O-])c2ccc(C)cc2)C1=O (stereo partly drawn) [Compound 5],2.53 ± 0.23,,,,7.46 ± 2.17,5.76 ± 0.42,
COC1=CC(=O)[C@]2(C)CC=C3CO[C@@H](c4ccccc4)CC3C2C1=O (stereo partly drawn) [Compound 6],,> 10,> 10,> 10,,,

# Second part, led by results:
IC50 [1] [µM],remaining activity at 100 µM [1] [%],remaining activity at 100 µM [2] [%],remaining activity at 100 µM [3] [%],IC50 [2] [µM],IC50 [3] [µM],SMILES,IC50 CDC25B [2]
2.64 ± 0.62,,,,,,COC1=CC(=O)C=C([S@@+]([O-])c2ccc(C)cc2)C1=O [Compound 1],
,> 10,> 10,> 10,,,COC1=CC(=O)[C@]2(C)CC=C3CO[C@@H](c4ccoc4)CC3C2[C@H]1O (stereo partly drawn) [Compound 7],
